What was measured:
Assay type in all cases: cell-based
[1] = biological target: T1, von Hippel-Lindau disease tumor suppressor/SWI/SNF-related matrix-associated actin-dependent regulator of chromatin subfamily A member 4 (Homo sapiens, UniProt P51532+P40337); experiment: PROTAC activity at VHL/C-terminal HiBiT fused SMARCA4 in human HeLa cells assessed as induction of SMARCA4 degradation incubated for 24 hrs by Nano-Glo HiBiT analysis
Target sequence in this assay (P51532 whole entry, the tested form may be a part): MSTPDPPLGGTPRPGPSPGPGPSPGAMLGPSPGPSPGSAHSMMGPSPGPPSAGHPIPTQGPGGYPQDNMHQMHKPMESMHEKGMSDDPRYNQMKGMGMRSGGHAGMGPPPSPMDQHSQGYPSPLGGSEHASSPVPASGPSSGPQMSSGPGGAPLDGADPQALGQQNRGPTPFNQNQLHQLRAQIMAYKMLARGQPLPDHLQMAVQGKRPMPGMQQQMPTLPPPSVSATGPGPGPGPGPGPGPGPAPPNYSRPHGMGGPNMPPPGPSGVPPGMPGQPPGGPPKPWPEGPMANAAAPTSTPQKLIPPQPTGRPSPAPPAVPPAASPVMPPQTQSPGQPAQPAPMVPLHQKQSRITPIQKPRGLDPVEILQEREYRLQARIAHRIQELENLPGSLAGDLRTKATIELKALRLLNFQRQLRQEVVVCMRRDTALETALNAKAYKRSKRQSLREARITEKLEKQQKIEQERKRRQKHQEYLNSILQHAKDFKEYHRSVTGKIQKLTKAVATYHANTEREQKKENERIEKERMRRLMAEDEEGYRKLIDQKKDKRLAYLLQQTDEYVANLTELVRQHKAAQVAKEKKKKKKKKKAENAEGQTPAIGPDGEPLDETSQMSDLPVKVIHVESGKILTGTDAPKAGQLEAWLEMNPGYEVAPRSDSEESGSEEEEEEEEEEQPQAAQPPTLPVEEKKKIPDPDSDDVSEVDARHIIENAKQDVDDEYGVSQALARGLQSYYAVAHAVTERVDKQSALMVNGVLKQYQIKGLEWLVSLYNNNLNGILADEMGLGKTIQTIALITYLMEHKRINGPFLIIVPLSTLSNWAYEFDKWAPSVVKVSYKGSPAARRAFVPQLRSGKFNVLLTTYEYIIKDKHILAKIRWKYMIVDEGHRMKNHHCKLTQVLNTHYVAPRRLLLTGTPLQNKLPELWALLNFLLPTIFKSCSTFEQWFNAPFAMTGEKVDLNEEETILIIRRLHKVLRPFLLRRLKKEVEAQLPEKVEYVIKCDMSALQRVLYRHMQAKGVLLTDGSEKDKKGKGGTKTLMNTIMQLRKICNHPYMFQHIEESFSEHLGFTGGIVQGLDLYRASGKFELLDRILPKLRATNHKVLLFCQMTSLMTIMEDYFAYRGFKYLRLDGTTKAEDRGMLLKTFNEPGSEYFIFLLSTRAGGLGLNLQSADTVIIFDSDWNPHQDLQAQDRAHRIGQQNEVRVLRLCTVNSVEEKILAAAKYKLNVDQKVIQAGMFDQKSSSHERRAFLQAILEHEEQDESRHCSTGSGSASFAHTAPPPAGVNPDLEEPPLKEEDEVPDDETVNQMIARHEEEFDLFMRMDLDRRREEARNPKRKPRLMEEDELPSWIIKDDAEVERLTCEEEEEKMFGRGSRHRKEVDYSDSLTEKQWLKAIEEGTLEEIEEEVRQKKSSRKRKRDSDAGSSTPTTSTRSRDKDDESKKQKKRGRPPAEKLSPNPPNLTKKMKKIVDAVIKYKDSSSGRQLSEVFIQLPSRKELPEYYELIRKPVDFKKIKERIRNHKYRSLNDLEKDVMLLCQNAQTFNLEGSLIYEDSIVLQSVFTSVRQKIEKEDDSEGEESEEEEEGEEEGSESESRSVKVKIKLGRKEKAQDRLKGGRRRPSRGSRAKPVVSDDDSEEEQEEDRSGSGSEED
Target sequence in this assay (P40337 whole entry, the tested form may be a part): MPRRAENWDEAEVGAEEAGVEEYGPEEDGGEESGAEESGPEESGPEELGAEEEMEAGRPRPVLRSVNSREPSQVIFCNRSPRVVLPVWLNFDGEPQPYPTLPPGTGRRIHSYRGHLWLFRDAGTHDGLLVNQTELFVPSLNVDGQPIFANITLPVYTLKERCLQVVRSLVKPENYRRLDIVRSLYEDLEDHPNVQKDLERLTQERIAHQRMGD

[2] = biological target: T2, von Hippel-Lindau disease tumor suppressor/SWI/SNF-related matrix-associated actin-dependent regulator of chromatin subfamily A member 2 (Homo sapiens, UniProt P51531+P40337); experiment: PROTAC activity at VHL/C-terminal HiBiT fused SMARCA2 in human HeLa cells assessed as induction of SMARCA2 degradation incubated for 24 hrs by Nano-Glo HiBiT analysis
Target sequence in this assay (P51531 whole entry, the tested form may be a part): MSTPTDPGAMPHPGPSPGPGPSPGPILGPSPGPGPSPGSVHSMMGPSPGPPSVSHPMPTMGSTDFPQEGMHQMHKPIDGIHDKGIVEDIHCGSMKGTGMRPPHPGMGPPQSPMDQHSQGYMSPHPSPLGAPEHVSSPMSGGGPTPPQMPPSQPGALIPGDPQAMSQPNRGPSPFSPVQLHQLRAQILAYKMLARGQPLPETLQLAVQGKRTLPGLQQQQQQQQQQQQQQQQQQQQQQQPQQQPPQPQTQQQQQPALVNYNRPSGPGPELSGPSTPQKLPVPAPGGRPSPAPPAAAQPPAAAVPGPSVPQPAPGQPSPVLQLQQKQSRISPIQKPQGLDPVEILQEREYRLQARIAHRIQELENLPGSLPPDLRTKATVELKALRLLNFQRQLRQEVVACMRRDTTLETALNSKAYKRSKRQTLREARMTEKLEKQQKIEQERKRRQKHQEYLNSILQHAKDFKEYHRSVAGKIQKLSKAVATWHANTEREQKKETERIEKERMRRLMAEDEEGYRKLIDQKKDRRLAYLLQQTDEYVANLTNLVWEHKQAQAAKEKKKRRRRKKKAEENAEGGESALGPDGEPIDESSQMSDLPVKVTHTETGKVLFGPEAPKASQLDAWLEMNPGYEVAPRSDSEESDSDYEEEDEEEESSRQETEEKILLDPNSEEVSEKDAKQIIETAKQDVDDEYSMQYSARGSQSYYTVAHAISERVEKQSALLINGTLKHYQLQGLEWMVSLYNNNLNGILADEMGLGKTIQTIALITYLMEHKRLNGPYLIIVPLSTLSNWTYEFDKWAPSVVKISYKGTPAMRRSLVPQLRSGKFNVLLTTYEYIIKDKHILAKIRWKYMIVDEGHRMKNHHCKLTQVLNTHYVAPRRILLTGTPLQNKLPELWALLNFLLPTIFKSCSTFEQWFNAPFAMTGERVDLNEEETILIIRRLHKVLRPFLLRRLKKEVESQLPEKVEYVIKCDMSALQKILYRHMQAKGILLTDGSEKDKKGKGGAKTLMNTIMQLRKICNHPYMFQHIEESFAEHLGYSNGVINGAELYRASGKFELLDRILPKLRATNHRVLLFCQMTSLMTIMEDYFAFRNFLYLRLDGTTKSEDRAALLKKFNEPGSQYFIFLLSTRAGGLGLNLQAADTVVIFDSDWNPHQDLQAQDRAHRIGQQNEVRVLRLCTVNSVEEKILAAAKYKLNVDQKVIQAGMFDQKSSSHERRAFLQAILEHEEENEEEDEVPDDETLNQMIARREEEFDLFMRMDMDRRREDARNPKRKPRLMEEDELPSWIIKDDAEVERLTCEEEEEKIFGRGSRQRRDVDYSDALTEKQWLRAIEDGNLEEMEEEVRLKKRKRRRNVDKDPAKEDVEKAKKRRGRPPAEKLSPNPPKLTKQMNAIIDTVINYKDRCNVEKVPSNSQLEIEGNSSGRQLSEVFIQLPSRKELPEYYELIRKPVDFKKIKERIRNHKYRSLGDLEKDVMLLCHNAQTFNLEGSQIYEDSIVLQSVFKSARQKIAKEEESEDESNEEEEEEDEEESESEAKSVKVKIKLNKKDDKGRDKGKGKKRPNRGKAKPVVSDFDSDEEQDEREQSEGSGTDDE
Target sequence in this assay (P40337 whole entry, the tested form may be a part): as the sequence (P40337 whole entry, the tested form may be a part) above

[3] = biological target: T1, von Hippel-Lindau disease tumor suppressor/SWI/SNF-related matrix-associated actin-dependent regulator of chromatin subfamily A member 4; experiment: PROTAC activity at VHL/C-terminal HiBiT fused SMARCA4 in human HeLa cells assessed as induction of SMARCA4 degradation by measuring maximal efficacy incubated for 24 hrs by Nano-Glo HiBiT analysis relative to control
Target sequence in this assay (P40337 whole entry, looked up, the tested form may be a part): as the sequence (P40337 whole entry, the tested form may be a part) above
Target sequence in this assay (P51532 whole entry, looked up, the tested form may be a part): as the sequence (P51532 whole entry, the tested form may be a part) above

[4] = biological target: T2, von Hippel-Lindau disease tumor suppressor/SWI/SNF-related matrix-associated actin-dependent regulator of chromatin subfamily A member 2; experiment: PROTAC activity at VHL/C-terminal HiBiT fused SMARCA2 in human HeLa cells assessed as induction of SMARCA2 degradation by measuring maximal efficacy incubated for 24 hrs by Nano-Glo HiBiT analysis relative to control
Target sequence in this assay (P40337 whole entry, looked up, the tested form may be a part): as the sequence (P40337 whole entry, the tested form may be a part) above
Target sequence in this assay (P51531 whole entry, looked up, the tested form may be a part): as the sequence (P51531 whole entry, the tested form may be a part) above

Compound	DC50 [1] [nM]	DC50 [2] [nM]	Emax [3] [%]	Emax [4] [%]
Cc1cc([C@H](C(=O)N2C[C@H](O)C[C@H]2C(=O)N[C@@H](CC(=O)NCCCCCCCCn2cc(-c3cc(-c4ccccc4O)nnc3N)cn2)c2ccc(-c3scnc3C)cc2)C(C)C)on1	66	67	93	91
Cc1cc([C@H](C(=O)N2C[C@H](O)C[C@H]2C(=O)N[C@@H](CC(=O)NCCCCCCCCCCCCn2cc(-c3cc(-c4ccccc4O)nnc3N)cn2)c2ccc(-c3scnc3C)cc2)C(C)C)on1	90	46	89	93
Cc1cc([C@H](C(=O)N2C[C@H](O)C[C@H]2C(=O)N[C@@H](CC(=O)NCCCCCCCn2cc(-c3cc(-c4ccccc4O)nnc3N)cn2)c2ccc(-c3scnc3C)cc2)C(C)C)on1	91	96	92	91
Cc1ncsc1-c1ccc([C@H](C)NC(=O)[C@@H]2C[C@@H](O)CN2C(=O)[C@@H](NC(=O)COCCOCCOCCn2cc(-c3cc(-c4ccccc4O)nnc3N)cn2)C(C)C)cc1	> 1000	455	47	71
Cc1cc([C@H](C(=O)N2C[C@H](O)C[C@H]2C(=O)N[C@@H](CC(=O)NCCCCCCCCCn2cc(-c3cc(-c4ccccc4O)nnc3N)cn2)c2ccc(-c3scnc3C)cc2)C(C)C)on1	75	71	94	94
Cc1cc([C@H](C(=O)N2C[C@H](O)C[C@H]2C(=O)N[C@@H](CC(=O)NCCCCCCCCCCn2cc(-c3cc(-c4ccccc4O)nnc3N)cn2)c2ccc(-c3scnc3C)cc2)C(C)C)on1	53	37	93	95
Cc1cc([C@H](C(=O)N2C[C@H](O)C[C@H]2C(=O)N[C@@H](CC(=O)NCCCCCCn2cc(-c3cc(-c4ccccc4O)nnc3N)cn2)c2ccc(-c3scnc3C)cc2)C(C)C)on1	213	18	84	86
Cc1ncsc1-c1ccc([C@H](C)NC(=O)[C@@H]2C[C@@H](O)CN2C(=O)[C@@H](NC(=O)CCOCCOCCn2cc(-c3cc(-c4ccccc4O)nnc3N)cn2)C(C)C)cc1	> 1000	313	59	77
Cc1ncsc1-c1ccc([C@H](C)NC(=O)[C@@H]2C[C@@H](O)CN2C(=O)[C@@H](NC(=O)CCN2CCN(CCCn3cc(-c4cc(-c5ccccc5O)nnc4N)cn3)CC2)C(C)C)cc1	585	682	76	62

The next lines start with the values.

DC50 [1] [nM]	DC50 [2] [nM]	Emax [3] [%]	Emax [4] [%]	Compound
> 1000	134	57	85	Cc1ncsc1-c1ccc([C@H](C)NC(=O)[C@@H]2C[C@@H](O)CN2C(=O)[C@@H](NC(=O)CCCCn2cc(-c3cc(-c4ccccc4O)nnc3N)cn2)C(C)(C)C)cc1
219	5	66	90	Cc1ncsc1-c1ccc([C@H](C)NC(=O)[C@@H]2C[C@@H](O)CN2C(=O)[C@@H](NC(=O)[C@H]2CC[C@H](CN3CCC4(CCC(n5cc(-c6cc(-c7ccccc7O)nnc6N)cn5)CC4)CC3)CC2)C(C)(C)C)cc1
463	132	84	88	Cc1ncsc1-c1ccc([C@H](C)NC(=O)[C@@H]2C[C@@H](O)CN2C(=O)[C@@H](NC(=O)CCCn2cc(-c3cc(-c4ccccc4O)nnc3N)cn2)C(C)(C)C)cc1
31	3	93	95	Cc1ncsc1-c1ccc([C@H](C)NC(=O)[C@@H]2C[C@@H](O)CN2C(=O)[C@@H](NC(=O)CCCCCCCCn2cc(-c3cc(-c4ccccc4O)nnc3N)cn2)C(C)(C)C)cc1
47	6	87	93	Cc1ncsc1-c1ccc([C@H](C)NC(=O)[C@@H]2C[C@@H](O)CN2C(=O)[C@@H](NC(=O)CCCCCCCCCCn2cc(-c3cc(-c4ccccc4O)nnc3N)cn2)C(C)(C)C)cc1
315	34	72	90	Cc1ncsc1-c1ccc([C@@H](C)NC(=O)[C@H]2C[C@H](O)CN2C(=O)[C@H](NC(=O)C2CCC(N3CCC4(CCC(n5cc(-c6cc(-c7ccccc7O)nnc6N)cn5)CC4)CC3)CC2)C(C)(C)C)cc1 (single isomer, unassigned)
> 1000	> 1000	0	12	Cc1ncsc1-c1ccc([C@H](C)NC(=O)[C@@H]2C[C@@H](O)CN2C(=O)[C@@H](NC(=O)CCN2CCC(CCCn3cc(-c4cc(-c5ccccc5O)nnc4N)cn3)CC2)C(C)C)cc1
> 1000	12	73	93	Cc1ncsc1-c1ccc([C@H](C)NC(=O)[C@@H]2C[C@@H](O)CN2C(=O)[C@@H](NC(=O)CCCCCn2cc(-c3cc(-c4ccccc4O)nnc3N)cn2)C(C)(C)C)cc1
> 1000	25	55	85	Cc1ncsc1-c1ccc([C@H](C)NC(=O)[C@@H]2C[C@@H](O)CN2C(=O)[C@@H](NC(=O)C2CCC(N3CC4(CCC(n5cc(-c6cc(-c7ccccc7O)nnc6N)cn5)CC4)C3)CC2)C(C)(C)C)cc1 (some centres not stated)
23	3	90	95	Cc1ncsc1-c1ccc([C@H](C)NC(=O)[C@@H]2C[C@@H](O)CN2C(=O)[C@@H](NC(=O)CCCCCCCn2cc(-c3cc(-c4ccccc4O)nnc3N)cn2)C(C)(C)C)cc1
> 1000	> 1000	0	19	Cc1ncsc1-c1ccc([C@H](C)NC(=O)[C@@H]2C[C@@H](O)CN2C(=O)[C@@H](NC(=O)CCn2cc(-c3cc(-c4ccccc4O)nnc3N)cn2)C(C)(C)C)cc1
248	6	77	94	Cc1ncsc1-c1ccc([C@H](C)NC(=O)[C@@H]2C[C@@H](O)CN2C(=O)[C@@H](NC(=O)CCCCCN2CCC(n3cc(-c4cc(-c5ccccc5O)nnc4N)cn3)CC2)C(C)(C)C)cc1
13	3	96	95	Cc1ncsc1-c1ccc([C@H](C)NC(=O)[C@@H]2C[C@@H](O)CN2C(=O)[C@@H](NC(=O)CCCCCCCCCCCn2cc(-c3cc(-c4ccccc4O)nnc3N)cn2)C(C)(C)C)cc1
212	16	81	89	Cc1ncsc1-c1ccc([C@H](C)NC(=O)[C@@H]2C[C@@H](O)CN2C(=O)[C@@H](NC(=O)CCCCCCn2cc(-c3cc(-c4ccccc4O)nnc3N)cn2)C(C)(C)C)cc1
